From patent publication US9409908B2 (priority 2012, dated 2016)
Where a name gives a salt, the structure may show the parent alone.

Experiments:
[1] = biological target: purified human Factor XIa (Homo sapiens (Human), UniProt P03951); assay: biochemical; type: biochemical; conditions: read-out: Factor XIa Ki
[2] = biological target: purified human plasma kallikrein (Homo sapiens (Human), UniProt P03952); assay: biochemical; type: biochemical; conditions: read-out: Plasma Kallikrein Ki
purified human plasma kallikrein, sequence (P03952 whole entry, looked up): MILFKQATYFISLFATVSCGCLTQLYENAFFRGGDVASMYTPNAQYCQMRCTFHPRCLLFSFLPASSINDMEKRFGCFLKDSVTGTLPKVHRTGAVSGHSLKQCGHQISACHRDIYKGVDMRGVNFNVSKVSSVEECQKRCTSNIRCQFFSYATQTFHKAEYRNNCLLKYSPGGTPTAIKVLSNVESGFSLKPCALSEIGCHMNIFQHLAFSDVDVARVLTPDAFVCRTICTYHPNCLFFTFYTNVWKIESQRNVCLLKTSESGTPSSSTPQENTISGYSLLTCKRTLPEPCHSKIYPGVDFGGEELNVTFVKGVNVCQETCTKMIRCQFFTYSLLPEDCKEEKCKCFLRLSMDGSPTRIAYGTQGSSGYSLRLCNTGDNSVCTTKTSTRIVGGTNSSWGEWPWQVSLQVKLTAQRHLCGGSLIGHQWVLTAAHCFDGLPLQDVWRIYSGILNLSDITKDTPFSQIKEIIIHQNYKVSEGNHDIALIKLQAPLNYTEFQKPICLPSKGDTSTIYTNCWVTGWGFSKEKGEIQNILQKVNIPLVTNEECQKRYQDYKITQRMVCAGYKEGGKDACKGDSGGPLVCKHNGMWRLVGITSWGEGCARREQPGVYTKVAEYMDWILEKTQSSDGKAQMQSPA
purified human plasma kallikrein, sequence (P03952 whole entry partner, looked up): as the sequence (P03952 whole entry, looked up) above

purified human Factor XIa, sequence (P03951 whole entry, looked up): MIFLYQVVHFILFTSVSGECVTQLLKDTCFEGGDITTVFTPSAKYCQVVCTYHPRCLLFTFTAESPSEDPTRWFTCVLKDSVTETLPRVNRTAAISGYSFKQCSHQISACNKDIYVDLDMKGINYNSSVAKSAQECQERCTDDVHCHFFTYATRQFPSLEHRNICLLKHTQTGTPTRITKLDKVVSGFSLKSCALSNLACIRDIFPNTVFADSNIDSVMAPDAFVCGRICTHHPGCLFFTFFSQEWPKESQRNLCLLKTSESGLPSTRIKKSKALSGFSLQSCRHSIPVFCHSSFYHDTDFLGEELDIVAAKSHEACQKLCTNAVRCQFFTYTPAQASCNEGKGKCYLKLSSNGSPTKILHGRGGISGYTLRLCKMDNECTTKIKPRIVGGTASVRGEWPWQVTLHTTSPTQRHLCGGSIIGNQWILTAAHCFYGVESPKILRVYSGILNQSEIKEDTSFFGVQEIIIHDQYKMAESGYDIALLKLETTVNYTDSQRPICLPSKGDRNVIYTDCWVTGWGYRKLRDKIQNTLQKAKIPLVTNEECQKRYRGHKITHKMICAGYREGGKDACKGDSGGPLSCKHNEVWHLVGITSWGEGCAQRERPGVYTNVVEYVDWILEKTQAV
purified human Factor XIa, sequence (P03951 whole entry partner, looked up): as the sequence (P03951 whole entry, looked up) above

Structure (SMILES) | Ki [1] | Ki [2]
CC1CCC[C@H](N2CCC(c3c(C(F)(F)F)ccc(Cl)c3F)=CC2=O)c2cc(ccn2)-c2ccc(C(=O)O)cc2NC1=O (stereo partly drawn) [Example 106, (14S)-14-{4-[3-Chloro-2-fluoro-6-(trifluoromethyl)phenyl]-6-oxo-1,2,3,6-tetrahydropyridin-1-yl}-10-methyl-9-oxo-8,16-diazatricyclo[13.3.1.0^2,7]nonadeca-1(18),2,4,6,15(19),16-hexaene-5-carboxylic acid, TFA salt] | > 342 nM | 890 nM
C[C@@H]1CCC[C@H](N2CCC(c3c(C#N)ccc(Cl)c3F)=CC2=O)c2cc(ccn2)-c2ccccc2NC1=O [Example 49, 4-Chloro-3-fluoro-2-{1-[(10R,14S)-10-methyl-9-oxo-8,16-diazatricyclo[13.3.1.0^2,7]nonadeca-1(19),2,4,6,15,17-hexaen-14-yl]-6-oxo-1,2,3,6-tetrahydropyridin-4-yl}benzonitrile, TFA salt] | 1.06 nM | 3 nM
COC(=O)Nc1ccc2c(c1)NC(=O)[C@H](C)CC(=O)C[C@H](N1CCC(c3c(F)ccc(Cl)c3F)=CC1=O)c1cc-2ccn1 [Example 22, Methyl N-[(10R,14S)-14-[4-(3-chloro-2,6-difluorophenyl)-6-oxo-1,2,3,6-tetrahydropyridin-1-yl]-10-methyl-9,12-dioxo-8,16-diazatricyclo[13.3.1.0^2,7]nonadeca-1(19),2,4,6,15,17-hexaen-5-yl]carbamate, TFA salt] | > 438 nM | 352 nM
COC(=O)Nc1ccc2c(c1)NC(=O)[C@H](C)CCC[C@H](N1CCC(c3c(C#N)ccc(Cl)c3F)=CC1=O)c1cc-2ccn1 [Example 3, Methyl N-[(10R,14S)-14-[4-(3-chloro-6-cyano-2-fluorophenyl)-6-oxo-1,2,3,6-tetrahydropyridin-1-yl]-10-methyl-9-oxo-8,16-diazatricyclo[13.3.1.0^2,7]nonadeca-1(19),2,4,6,15,17-hexaen-5-yl]carbamate, TFA salt] | 0.03 nM | 1 nM
CC(=O)NC(=S)Nc1ccc2c(c1)NC(=O)[C@H](C)CCC[C@H](N1CCC(c3c(F)ccc(Cl)c3F)=CC1=O)c1cc-2ccn1 [Example 63, 3-Acetyl-1-[(10R,14S)-14-[4-(3-chloro-2,6-difluorophenyl)-6-oxo-1,2,3,6-tetrahydropyridin-1-yl]-10-methyl-9-oxo-8,16-diazatricyclo[13.3.1.0^2,7]nonadeca-1(19),2,4,6,15,17-hexaen-5-yl]thiourea] | 7.86 nM | 48 nM
COC(=O)Nc1ccc2c(c1)NC(=O)[C@H](C)CCC[C@H](N1CCC(c3c(F)ccc(Br)c3F)=CC1=O)c1cc-2ccn1 [Example 190, Methyl N-[(10R,14S)-14-[4-(3-bromo-2,6-difluorophenyl)-6-oxo-1,2,3,6-tetrahydropyridin-1-yl]-10-methyl-9-oxo-8,16-diazatricyclo[13.3.1.0^2,7]nonadeca-1(19),2,4,6,15,17-hexaen-5-yl]carbamate] | 0.27 nM | 1.11 nM
COC(=O)Nc1ccc2c(c1)NC(=O)[C@H](C)CCC[C@H](N1CCC(c3cccc(Cl)c3OC)=CC1=O)c1cc-2ccn1 [Example 118, Methyl N-[(10R,14S)-14-[4-(3-chloro-2-methoxyphenyl)-6-oxo-1,2,3,6-tetrahydropyridin-1-yl]-10-methyl-9-oxo-8,16-diazatricyclo[13.3.1.0^2,7]nonadeca-1(18),2,4,6,15(19),16-hexaen-5-yl]carbamate] | > 404 nM | 2030 nM
COC(=O)Nc1ccc2c(c1)NC(=O)[C@H](C)CCC[C@H](N1CCC(c3c(-c4c[nH]nn4)ccc(Cl)c3F)=CC1=O)c1cc-2ccn1 [Example 182, Methyl N-[(10R,14S)-14-{4-[3-chloro-2-fluoro-6-(1H-1,2,3-triazol-4-yl)phenyl]-6-oxo-1,2,3,6-tetrahydropyridin-1-yl}-10-methyl-9-oxo-8,16-diazatricyclo[13.3.1.0^2,7]nonadeca-1(19),2(7),3,5,15,17-hexaen-5-yl]carbamate] | 0.11 nM | 14.3 nM
COC(=O)Nc1ccc2c(c1)NC(=O)[C@H](C)CCC[C@H](N1CCC(c3c(C#N)ccc4c(N)n[nH]c34)=CC1=O)c1cc-2cc(OC)n1 [Example 8, Methyl N-[(10R,14S)-14-[4-(3-amino-6-cyano-1H-indazol-7-yl)-6-oxo-1,2,3,6-tetrahydropyridin-1-yl]-17-methoxy-10-methyl-9-oxo-8,16-diazatricyclo[13.3.1.0^2,7]nonadeca-1(18),2,4,6,15(19),16-hexaen-5-yl]carbamate, TFA salt] | > 457 nM | 173 nM
C[C@@H]1CCC[C@H](N2CCC(c3c(F)ccc(Cl)c3F)=CC2=O)c2cc(ccn2)-c2cc(Cl)c(O)cc2NC1=O [Example 19, (10R,14S)-4-Chloro-14-[4-(3-chloro-2,6-difluorophenyl)-6-oxo-1,2,3,6-tetrahydropyridin-1-yl]-5-hydroxy-10-methyl-8,16-diazatricyclo[13.3.1.0^2,7]nonadeca-1(19),2,4,6,15,17-hexaen-9-one, TFA salt] | 15.5 nM | 52 nM
C[C@@H]1CCC[C@H](N2CCC(c3c(C#N)ccc(Cl)c3F)=CC2=O)c2cc(ccn2)-c2c(ccc(F)c2F)NC1=O [Example 208, 4-chloro-2-{1-[(10R,14S)-3,4-difluoro-10-methyl-9-oxo-8,16-diazatricyclo[13.3.1.0^2,7]nonadeca-1(19),2(7),3,5,15,17-hexaen-14-yl]-6-oxo-1,2,3,6-tetrahydropyridin-4-yl}-3-fluorobenzonitrile, TFA salt] | 1 nM | 3.1 nM
C[C@@H]1CCC[C@H](N2CCC(c3cccc(Cl)c3F)=CC2=O)c2cc(ccn2)-c2ccccc2NC1=O [Example 47, (10R,14S)-14-[4-(3-Chloro-2-fluorophenyl)-6-oxo-1,2,3,6-tetrahydropyridin-1-yl]-10-methyl-8,16-diazatricyclo[13.3.1.0^2,7]nonadeca-1(19),2,4,6,15,17-hexaen-9-one, TFA salt] | 86.3 nM | 66 nM
C[C@@H]1CCC[C@H](N2CCC(c3c(C4CC4)ccc(Cl)c3F)=CC2=O)c2cc(ccn2)-c2ccccc2NC1=O [Example 52, (10R,14S)-14-[4-(3-Chloro-6-cyclopropyl-2-fluorophenyl)-6-oxo-1,2,3,6-tetrahydropyridin-1-yl]-10-methyl-8,16-diazatricyclo[13.3.1.0^2,7]nonadeca-1(19),2,4,6,15,17-hexaen-9-one, TFA salt] | 45.6 nM | 193 nM
C[C@@H]1CCC[C@H](N2CCC(c3c(F)ccc(Cl)c3F)=CC2=O)c2cccc(c2)-c2cc(C(=O)O)ccc2NC1=O [Example 166, (10R,14S)-14-[4-(3-chloro-2,6-difluorophenyl)-6-oxo-1,2,3,6-tetrahydropyridin-1-yl]-10-methyl-9-oxo-8-azatricyclo[13.3.1.0^2,7]nonadeca-1(19),2,4,6,15,17-hexaene-4-carboxylic acid] | 6.38 nM | 113 nM
CC(=O)N[C@@H]1C(Nc2ccc3c(c2)NC(=O)[C@H](C)CCC[C@H](N2CCC(c4c(F)ccc(Cl)c4F)=CC2=O)c2cc-3ccn2)O[C@H](CO)[C@@H](O)[C@@H]1O (stereo partly drawn) [Example 130, N-[(3S,4R,5S,6R)-2-{[(10R,14S)-14-[4-(3-chloro-2,6-difluorophenyl)-6-oxo-1,2,3,6-tetrahydropyridin-1-yl]-10-methyl-9-oxo-8,16-diazatricyclo[13.3.1.0^2,7]nonadeca-1(19),2,4,6,15,17-hexaen-5-yl]amino}-4,5-dihydroxy-6-(hydroxymethyl)oxan-3-yl]acetamide] | 8.51 nM | 26.5 nM
COC(=O)Nc1ccc2c(c1)NC(=O)[C@H](C)CCC[C@H](N1CCC(C3CCCCC3)=CC1=O)c1cc-2ccn1 [Example 98, Methyl N-[(10R,14S)-14-(4-cyclohexyl-6-oxo-1,2,3,6-tetrahydropyridin-1-yl)-10-methyl-9-oxo-8,16-diazatricyclo[13.3.1.0^2,7]nonadeca-1(19),2,4,6,15,17-hexaen-5-yl]carbamate, TFA salt] | 30.1 nM | 36 nM
C[C@@H]1CCC[C@H](N2CCC(c3c(F)ccc(Cl)c3F)=CC2=O)c2cc(cc[n+]2[O-])-c2ccc(N)cc2NC1=O [Example 70, (10R,14S)-5-Amino-14-[4-(3-chloro-2,6-difluorophenyl)-6-oxo-1,2,3,6-tetrahydropyridin-1-yl]-10-methyl-9-oxo-8,16-diazatricyclo[13.3.1.0^2,7]nonadeca-1(19),2,4,6,15,17-hexaen-16-ium-16-olate, TFA salt] | 8.02 nM | 18 nM
COC(=O)c1ccc2c(c1)-c1cccc(c1)[C@@H](N1CCC(c3c(F)ccc(Cl)c3F)=CC1=O)CCC[C@@H](C)C(=O)N2 [Example 164, Methyl (10R,14S)-14-[4-(3-chloro-2,6-difluorophenyl)-6-oxo-1,2,3,6-tetrahydropyridin-1-yl]-10-methyl-9-oxo-8-azatricyclo[13.3.1.0^2,7]nonadeca-1(19),2,4,6,15,17-hexaene-4-carboxylate] | > 398 nM | 442 nM
COC(=O)Nc1ccc2c(c1)NC(=O)[C@H](C)CCC[C@H](N1CCC(c3c(OC(F)F)ccc(Cl)c3F)=CC1=O)c1ccnc-2c1 [Example 31, Methyl N-[(10R,14S)-14-{4-[3-chloro-6-(difluoromethoxy)-2-fluorophenyl]-6-oxo-1,2,3,6-tetrahydropyridin-1-yl}-10-methyl-9-oxo-8,18-diazatricyclo[13.3.1.0^2,7]nonadeca-1(19),2,4,6,15,17-hexaen-5-yl]carbamate, TFA salt] | 0.04 nM | 3 nM
CC1CCC[C@H](N2CCC(c3c(C(F)(F)F)ccc(Cl)c3F)=CC2=O)c2cc(ccn2)-c2ccc(C(N)=O)cc2NC1=O (stereo partly drawn) [Example 108, (14S)-14-{4-[3-Chloro-2-fluoro-6-(trifluoromethyl)phenyl]-6-oxo-1,2,3,6-tetrahydropyridin-1-yl}-10-methyl-9-oxo-8,16-diazatricyclo[13.3.1.0^2,7]nonadeca-1(18),2,4,6,15(19),16-hexaene-5-carboxamide, TFA salt] | 8.13 nM | 29 nM
